Experimental data published in PubChem BioAssay (NCI).
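Values below derive from 48-hour exposures of cells grown in 96-well plates, with endpoints linearly interpolated between the two concentrations bracketing the appropriate inhibition level. TGI marks complete inhibition of growth.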

Experiments:
Assay in all cases: NCI-60 cell line screen, 48 h
[1] = tested on: 786-0 renal
[2] = tested on: A498 renal
[3] = tested on: ACHN renal
[4] = tested on: BT-549 breast
[5] = tested on: CAKI-1 renal
[6] = tested on: CCRF-CEM leukemia
[7] = tested on: COLO 205 colon
[8] = tested on: DU-145 prostate
[9] = tested on: EKVX NSCLC
[10] = tested on: HCC-2998 colon
[11] = tested on: HCT-116 colon
[12] = tested on: HCT-15 colon
[13] = tested on: HL-60(TB) leukemia
[14] = tested on: HOP-62 NSCLC
[15] = tested on: HOP-92 NSCLC
[16] = tested on: HS 578T breast
[17] = tested on: IGROV1 ovarian
[18] = tested on: K-562 leukemia
[19] = tested on: KM12 colon
[20] = tested on: LOX IMVI melanoma
[21] = tested on: M14 melanoma
[22] = tested on: MALME-3M melanoma
[23] = tested on: MCF7 breast
[24] = tested on: MDA-MB-231 breast
[25] = tested on: MDA-MB-435
[26] = tested on: MDA-N
[27] = tested on: MOLT-4 leukemia
[28] = tested on: NCI-H226 lung
[29] = tested on: NCI-H23 lung
[30] = tested on: NCI-H460 lung
[31] = tested on: NCI-H522 lung
[32] = tested on: NCI/ADR-RES ovarian
[33] = tested on: OVCAR-3 ovarian
[34] = tested on: OVCAR-4 ovarian
[35] = tested on: OVCAR-5 ovarian
[36] = tested on: OVCAR-8 ovarian
[37] = tested on: PC-3 prostate
[38] = tested on: RPMI-8226 leukemia
[39] = tested on: RXF 393 renal
[40] = tested on: SF-268 CNS
[41] = tested on: SF-295 CNS
[42] = tested on: SF-539 CNS
[43] = tested on: SK-MEL-2 melanoma
[44] = tested on: SK-MEL-28 melanoma
[45] = tested on: SK-MEL-5 melanoma
[46] = tested on: SK-OV-3 ovarian
[47] = tested on: SN12C renal
[48] = tested on: SNB-19 CNS
[49] = tested on: SNB-75 CNS
[50] = tested on: SR leukemia
[51] = tested on: SW-620 colon
[52] = tested on: TK-10 renal
[53] = tested on: U251 CNS
[54] = tested on: UACC-257 melanoma
[55] = tested on: UACC-62 melanoma
[56] = tested on: A549 NSCLC
[57] = tested on: HT29 colon
[58] = tested on: T-47D breast
[59] = tested on: UO-31 renal

Question: How did the TGI [1] turn out when CC(CSc1nc2c(c(=N)n1-c1ccccc1)c(=S)n(-c1ccccc1)c(=S)n2-c1ccccc1)CN(C)C (stereo not given) was run?
Answer: The TGI was 2.37 µM.

Question: What about the TGI [2] of the same molecule?
Answer: The TGI was 6 µM.

Question: What about the TGI [3] of the same molecule?
Answer: The TGI was 3.15 µM.

Question: What about the TGI [4] of the same molecule?
Answer: The TGI was 3.52 µM.

Question: And the TGI [5]?
Answer: Its TGI is 2.97 µM.

Question: What about the TGI [6] of the same molecule?
Answer: The TGI was 1.49 µM.

Question: And the TGI [7]?
Answer: Its TGI is 3.48 µM.

Question: What about the TGI [8] of the same molecule?
Answer: Its TGI is 3.03 µM.

Question: What about the TGI [9] of the same molecule?
Answer: The TGI was 3.12 µM.

Question: What about the TGI [10] of the same molecule?
Answer: Its TGI is 2.7 µM.

Question: And the TGI [11]?
Answer: Its TGI is 3.07 µM.

Question: And the TGI [12]?
Answer: Its TGI is 3.17 µM.

Question: And the TGI [13]?
Answer: The TGI was 2.37 µM.

Question: And the TGI [14]?
Answer: The TGI was 3.62 µM.

Question: And the TGI [15]?
Answer: Its TGI is 2.97 µM.

Question: And the TGI [16]?
Answer: Its TGI is > 28.7 µM.

Question: And the TGI [17]?
Answer: Its TGI is 2.79 µM.

Question: And the TGI [18]?
Answer: The TGI was 3.14 µM.

Question: What about the TGI [19] of the same molecule?
Answer: Its TGI is 5.6 µM.

Question: What about the TGI [20] of the same molecule?
Answer: Its TGI is 2.57 µM.

Question: And the TGI [21]?
Answer: The TGI was 3.56 µM.

Question: What about the TGI [22] of the same molecule?
Answer: Its TGI is 3.23 µM.

Question: And the TGI [23]?
Answer: Its TGI is 1.05 µM.

Question: And the TGI [24]?
Answer: The TGI was 3.46 µM.

Question: What about the TGI [25] of the same molecule?
Answer: The TGI was 3.13 µM.

Question: And the TGI [26]?
Answer: The TGI was 3.76 µM.

Question: And the TGI [27]?
Answer: The TGI was 3.02 µM.

Question: And the TGI [28]?
Answer: The TGI was 14.2 µM.

Question: What about the TGI [29] of the same molecule?
Answer: Its TGI is 4.89 µM.

Question: And the TGI [30]?
Answer: Its TGI is 4.14 µM.

Question: And the TGI [31]?
Answer: The TGI was 2.83 µM.

Question: What about the TGI [32] of the same molecule?
Answer: Its TGI is 11.8 µM.

Question: And the TGI [33]?
Answer: Its TGI is 3.09 µM.

Question: What about the TGI [34] of the same molecule?
Answer: Its TGI is 3.2 µM.

Question: And the TGI [35]?
Answer: Its TGI is 26.8 µM.

Question: And the TGI [36]?
Answer: The TGI was 3 µM.

Question: What about the TGI [37] of the same molecule?
Answer: Its TGI is 3.38 µM.

Question: What about the TGI [38] of the same molecule?
Answer: The TGI was 1.4 µM.

Question: What about the TGI [39] of the same molecule?
Answer: The TGI was 3.32 µM.

Question: What about the TGI [40] of the same molecule?
Answer: The TGI was 3.24 µM.

Question: And the TGI [41]?
Answer: The TGI was 16.7 µM.

Question: What about the TGI [42] of the same molecule?
Answer: The TGI was 7.9 µM.

Question: And the TGI [43]?
Answer: The TGI was 5.29 µM.

Question: And the TGI [44]?
Answer: Its TGI is 4.67 µM.

Question: What about the TGI [45] of the same molecule?
Answer: The TGI was 4.42 µM.

Question: And the TGI [46]?
Answer: The TGI was 11.6 µM.

Question: What about the TGI [47] of the same molecule?
Answer: Its TGI is 3.55 µM.

Question: What about the TGI [48] of the same molecule?
Answer: Its TGI is 17.8 µM.

Question: And the TGI [49]?
Answer: Its TGI is 3.41 µM.

Question: What about the TGI [50] of the same molecule?
Answer: Its TGI is 0.938 µM.

Question: And the TGI [51]?
Answer: The TGI was 8.1 µM.

Question: What about the TGI [52] of the same molecule?
Answer: Its TGI is 3.07 µM.

Question: What about the TGI [53] of the same molecule?
Answer: The TGI was 3.28 µM.

Question: And the TGI [54]?
Answer: Its TGI is 3.43 µM.

Question: And the TGI [55]?
Answer: The TGI was 3.15 µM.

Question: Which results are given for O=C(c1ccccc1)C1C(c2ccccc2[N+](=O)[O-])N1C1CCCCC1 (stereo not given)?
Answer: TGI [1]: 5.05 µM; TGI [2]: 30.5 µM; TGI [56]: 44.2 µM; TGI [3]: 3.74 µM; TGI [4]: 32.3 µM; TGI [5]: 9.5 µM; TGI [7]: 20.4 µM; TGI [8]: 22.6 µM; TGI [9]: 30.8 µM; TGI [10]: 18 µM; TGI [11]: 8.6 µM; TGI [12]: 23 µM; TGI [14]: 34.1 µM; TGI [15]: 16.2 µM; TGI [16]: 49.3 µM; TGI [57]: 16.4 µM; TGI [17]: 17.4 µM; TGI [18]: 8.06 µM; TGI [19]: 25.2 µM; TGI [20]: 5.18 µM; TGI [21]: 23.9 µM; TGI [22]: 29.4 µM; TGI [23]: 15.9 µM; TGI [24]: 23 µM; TGI [25]: 10.8 µM; TGI [26]: 19.7 µM; TGI [27]: 7.79 µM; TGI [28]: 34 µM; TGI [29]: 37.4 µM; TGI [30]: 24.8 µM; TGI [31]: 5.9 µM; TGI [32]: > 85.2 µM; TGI [33]: 7.82 µM; TGI [34]: 22.7 µM; TGI [35]: 36.9 µM; TGI [36]: 3.97 µM; TGI [37]: 15.9 µM; TGI [38]: 4.68 µM; TGI [39]: 17 µM; TGI [40]: 38.3 µM; TGI [41]: 35.3 µM; TGI [42]: 4.77 µM; TGI [43]: 18.6 µM; TGI [44]: > 57.7 µM; TGI [45]: 24.4 µM; TGI [46]: > 60.9 µM; TGI [47]: 15.6 µM; TGI [48]: 32.3 µM; TGI [51]: > 26.6 µM; TGI [58]: 7.57 µM; TGI [52]: 7.4 µM; TGI [53]: 18.5 µM; TGI [54]: 8.88 µM; TGI [55]: 20.6 µM; TGI [59]: 20.3 µM
